Reference: patent publication US11932620B1, “Ethyl 2-[9-(6-flouro-2-hydroxyquinolin-3-yl)-1,8-dioxo-3,4,9,10-tetrahydroacridine-10-yl]-acetate as an antimicrobial compound” (KING FAISAL UNIVERSITY, priority 2023, dated 2024)

What was measured:
Assay type in all cases: cell-based
Conditions in all cases: after 10, 20, 40 and 60 minutes at all dilutions 1:100, 1:200, 1:400, 1:800
Staphylococcus aureus = experiment: Antimicrobial screening by agar dilution, Staphylococcus aureus
Method: (§1) The antibacterial properties of the synthesized compound ethyl 2-[9-(6-fluoro-2-hydroxyquinolin-3-yl)-1,8-dioxo-3,4,9,10-tetrahydroacridine-10-yl]-acetate were studied by the method of agar dilution. Test solutions of each compound was prepared in concentration of 1% using dimethylformamide as a solvent then they are diluted in physiological solution to obtain the final experimental dilutions 1:100, 1:200, 1:400, 1:800. The effect of these substances are compared with furacillin in a controllable study. The testing microbes used were gram positive bacteria Staphylococcus aureus, gram negative bacteria Pseudomonas aeruginosa and Escherichia coli and Candida albicans fungus. The experiments used for this survey were meat-pentonlu agar (EPA) for cultivation of bacteria and Saburo environment for the fungus. Each experiment used 1 mL of test solution on each plate […]. Two drops of emulsified with microbes feel were added. All experimental samples were taken from the agar after 10, 20, 40, 60 minutes in the environment on the basis of Patrk planted. The bacteria were cultivated at a temperature of 37° C. for 1 day and the mushroom was kept in a thermostat for 2 hours at a temperature of 28° C. Then results were checked. Results of the control (Furacilin) and the antimicrobial activity for the synthesized compounds are listed in are listed in Table 1.

Pseudomonas aeruginosa = experiment: Antimicrobial screening by agar dilution, Pseudomonas aeruginosa
Method: as §1

Escherichia coli = experiment: Antimicrobial screening by agar dilution, Escherichia coli
Method: as §1

Candida albicans = experiment: Antimicrobial screening by agar dilution, Candida albicans
Method: as §1

Measured: inhibition activity (in words)

CCOC(=O)CN1C2=C(C(=O)CCC2)C(c2cc3cc(F)ccc3nc2O)C2=C1CCCC2=O [ethyl 2-[9-(6-fluoro-2-hydroxyquinolin-3-yl)-1,8-dioxo-3,4,9,10-tetrahydroacridine-10-yl]-acetate]
highest inhibition activity: all assays above
